According to patent publication US7842812B2, “Substituted 5-aminomethy1-1H-pyrrole-2-carboxylic acid amides” (Gruenenthal GmbH, priority 2004, dated 2010):

Key:
NA transporter = biological target: T1, NA transporter (Rattus norvegicus, UniProt Q63380); assay: Noradrenalin (NA) uptake inhibition in rat brain synaptosomes (hypothalamus); type: biochemical; settings: 10 μM
T1 construct: from tissue; host or cells: rat brain synaptosomes (P2 fraction) from hypothalamus
Source text: (§1) b) Method for Determining Noradrenalin and 5-HT Uptake Inhibition:
(§2) Synaptosomes from rat brain regions are freshly isolated for in vitro studies, as described in the publication “The isolation of nerve endings from brain” by E. G. Gray and V. P. Whittaker, J. Anatomy 96, pages 79-88, 1962, the disclosure of which is hereby incorporated by reference. The tissue (hypothalamus for the determination of noradrenalin uptake inhibition and medulla and pons for the determination of 5-HT uptake inhibition) is homogenized in ice-cooled 0.32 M sucrose (100 mg of tissue/1 ml) in a glass homogenizer with Teflon pestle using five complete up and down strokes at 840 revolutions/minute. The homogenate is centrifuged at 4° C. for 10 minutes at 1000 g. After subsequent centrifugation at 17000 g for 55 minutes, the synaptosomes (P2 fraction) are obtained, which are resuspended in 0.32 M […] (0.5 ml/100 mg of original weight).
The particular uptake is measured in a 96-well microtitre plate. The volume is 250 μl and the incubation proceeds at room temperature (approx. 20-25° C.) under an O2 atmosphere. The incubation time is 7.5 minutes for [^3H]-NA and 5 minutes for [^3H]-5-HT. The 96 samples are then filtered through a Unifilter GF/B® microtitre plate (Packard) and washed with […] of incubated buffer using a “Brabdel MPXRI-96T Cell-Harvester”. The Unifilter GF/B plate is dried for 1 hour at 55° C. The plate is then sealed with a Back Seal® (Packard) and 35 μl of scintillation fluid are added per well (Ultima Gold®, Packard). After sealing with a Top Seal® (Packard) and establishing an equilibrium (around 5 hours), radioactivity is determined in a “Trilux 1450 Microbeta” (Wallac).
The quantity of protein used in the above determination corresponds to the values known from the literature, as for example described in “Protein measurement with the folin phenol reagent”, Lowry et al., J. Biol. Chem., 193, 265-275, 1951. A detailed description of the method may additionally be found in the literature, for example in M. Ch. Frink, H.-H. Hennies, W. Engelberger, M. Haurand and B. Wilffert (1996) Arzneim.-Forsch./Drug Res. 46 (III), 11, 1029-1036, the disclosures of which are hereby incorporated by reference.
The following characteristics were determined for the NA or 5-HT transporter: NA uptake: Km=0.32±0.11 μM 5HT uptake: Km=0.084±0.011 μM. c) Investigation of Analgesic Efficacy by the Writhing Test
(§3) The 5-HT reuptake inhibition and noradrenalin reuptake inhibition of the 5-aminomethyl-1H-pyrrole-2-carboxylic acid amides according to the invention were determined as described above.

5-HT transporter = biological target: T2, 5-HT transporter (Rattus norvegicus, UniProt P31652); assay: 5-HT uptake inhibition in rat brain synaptosomes (medulla and pons); type: biochemical; settings: 10 μM
T2 construct: from tissue; host or cells: rat brain synaptosomes (P2 fraction) from medulla and pons
Source text: as §1, §2
The particular uptake is measured in a 96-well microtitre plate. The volume is 250 μl and the incubation proceeds at room temperature (approx. 20-25° C.) under an O2 atmosphere. The incubation time is 7.5 minutes for [^3H]-NA and 5 minutes for [^3H]-5-HT. The 96 samples are then filtered through a Unifilter GF/B® microtitre plate (Packard) and washed with […] of incubated buffer using a “Brabdel MPXRI-96T Cell-Harvester”. The Unifilter GF/B plate is dried for 1 hour at 55° C. […] After sealing with a Top Seal® (Packard) and establishing an equilibrium (around 5 hours), radioactivity is determined in a “Trilux 1450 Microbeta” (Wallac).
The quantity of protein used in the above determination corresponds to the values known from the literature, as for example described in “Protein measurement with the folin phenol reagent”, Lowry et al., J. Biol. Chem., 193, 265-275, 1951. […]
as §3

human μ opioid receptor = biological target: T3, human μ opioid receptor (Homo sapiens, UniProt P35372); assay: Affinity for human μ opioid receptor ([3H]-naloxone displacement, CHO-K1 membrane preparation, SPA); settings: percentage inhibition of specific [3H]-naloxone binding; compound concentration 1 μmol/l; read-out: OR μ1 human naloxone inhibition [%]
T3 construct: purchased NEN, Zaventem, Belgium RB-HOM; host or cells: CHO-K1 cells (membrane preparation)
Procedure: a) Method for Determining Affinity for Human μ Opioid Receptor
Receptor affinity for the human μ opioid receptor is determined in a homogeneous batch in microtitre plates. […] Once the ninety minute incubation time had elapsed, the microtitre plates were centrifuged off for 20 minutes at 1000 g and the radioactivity measured in a β-Counter (Microbeta-Trilux, from PerkinElmer Wallac, Freiburg, Germany). The percentage displacement of the radioactive ligand from its binding to the human μ opiate receptor is determined at a concentration of the compounds to be tested of 1 μmol/l and stated as percentage inhibition of specific binding. […]
The affinity of the 5-aminomethyl-1H-pyrrole-2-carboxylic acid amides according to the invention for the μ receptor was determined as described above.

T2 sequence (P31652 whole entry): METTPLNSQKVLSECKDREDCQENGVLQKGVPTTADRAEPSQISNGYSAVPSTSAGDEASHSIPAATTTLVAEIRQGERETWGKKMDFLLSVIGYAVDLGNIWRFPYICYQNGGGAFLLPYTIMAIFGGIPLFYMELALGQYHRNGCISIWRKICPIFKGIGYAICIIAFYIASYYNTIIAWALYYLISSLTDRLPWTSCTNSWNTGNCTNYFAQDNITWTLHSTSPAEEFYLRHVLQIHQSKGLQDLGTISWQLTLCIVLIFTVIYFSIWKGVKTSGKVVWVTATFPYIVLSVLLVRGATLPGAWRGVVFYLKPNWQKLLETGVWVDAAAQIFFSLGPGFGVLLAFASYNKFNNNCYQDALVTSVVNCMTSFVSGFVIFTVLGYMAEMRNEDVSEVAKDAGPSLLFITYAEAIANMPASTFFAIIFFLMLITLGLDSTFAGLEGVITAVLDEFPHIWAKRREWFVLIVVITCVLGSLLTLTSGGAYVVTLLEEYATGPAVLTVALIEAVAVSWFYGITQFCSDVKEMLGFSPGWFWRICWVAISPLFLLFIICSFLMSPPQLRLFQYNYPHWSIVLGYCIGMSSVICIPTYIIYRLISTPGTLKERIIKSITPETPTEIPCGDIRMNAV
T1 sequence (Q63380 1-617): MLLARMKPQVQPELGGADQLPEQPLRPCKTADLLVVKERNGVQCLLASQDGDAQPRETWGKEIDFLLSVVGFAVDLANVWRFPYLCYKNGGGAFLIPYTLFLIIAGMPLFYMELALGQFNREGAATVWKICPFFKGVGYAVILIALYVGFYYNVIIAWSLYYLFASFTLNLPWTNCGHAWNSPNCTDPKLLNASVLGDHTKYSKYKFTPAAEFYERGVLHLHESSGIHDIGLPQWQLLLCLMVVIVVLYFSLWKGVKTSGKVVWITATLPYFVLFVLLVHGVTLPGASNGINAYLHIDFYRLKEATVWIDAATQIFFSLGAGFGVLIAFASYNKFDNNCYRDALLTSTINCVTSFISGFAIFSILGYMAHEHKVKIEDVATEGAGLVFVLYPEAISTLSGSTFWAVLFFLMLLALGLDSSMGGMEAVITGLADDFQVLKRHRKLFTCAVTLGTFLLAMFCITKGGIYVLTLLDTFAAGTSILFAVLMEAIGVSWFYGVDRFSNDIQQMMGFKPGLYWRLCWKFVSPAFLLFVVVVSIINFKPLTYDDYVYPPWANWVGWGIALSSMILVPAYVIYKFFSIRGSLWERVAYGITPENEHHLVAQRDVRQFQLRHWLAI
T3 sequence (P35372 whole entry): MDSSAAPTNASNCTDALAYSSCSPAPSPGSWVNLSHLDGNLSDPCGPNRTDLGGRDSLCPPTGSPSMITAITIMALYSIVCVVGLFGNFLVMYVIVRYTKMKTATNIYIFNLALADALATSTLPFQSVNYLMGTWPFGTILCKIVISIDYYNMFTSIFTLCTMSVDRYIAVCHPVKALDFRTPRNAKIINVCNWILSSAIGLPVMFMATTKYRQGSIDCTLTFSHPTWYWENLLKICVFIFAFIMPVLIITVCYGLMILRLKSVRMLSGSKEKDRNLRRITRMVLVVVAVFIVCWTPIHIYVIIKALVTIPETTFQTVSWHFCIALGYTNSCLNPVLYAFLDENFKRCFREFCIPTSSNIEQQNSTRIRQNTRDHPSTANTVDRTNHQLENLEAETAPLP

Row | Compound | NA uptake inhibition (NA transporter) | 5HT uptake inhibition (5-HT transporter) | inhibition at 1 µM (human μ opioid receptor)
1 | 1-Methyl-5-pyrrolidin-1-ylmethyl-1H-pyrrole-2-carboxylic acid benzyl amide [Example 4] | 82 % inhibition | – | –
2 | CC1CCN(Cc2ccc(C(=O)N(C)Cc3ccccc3)n2C)CC1 [Example 1, 1-Methyl-5-(4-methyl-piperidin-1-ylmethyl)-1H-pyrrole-2-carboxylic acid benzyl-methyl amide] | 81 % inhibition | 70 % inhibition | –
3 | Cn1c(CN2CCCCCC2)ccc1C(=O)N1CCCC1 [Example 2, (5-Azepan-1-ylmethyl-1-methyl-1H-pyrrol-2-yl)-pyrrolidin-1-yl methanone] | – | 60 % inhibition | –
4 | CC1CCCCN1Cc1ccc(C(=O)N2CCCC2)n1C (stereo not drawn) [Example 3, [1-Methyl-5-(2-methyl-piperidin-1-ylmethyl)-1H-pyrrol-2-yl]-pyrrolidin-1-yl methanone] | – | 52 % inhibition | 83%
5 | CC1CCCCN1Cc1ccc(C(=O)N(C)Cc2ccccc2)n1C (stereo not drawn) [Example 5, 1-Methyl-5-(2-methyl-piperidin-1-ylmethyl)-1H-pyrrole-2-carboxylic acid benzyl-methyl amide] | 81 % inhibition | – | –
6 | CCOC(=O)C1CCN(Cc2ccc(C(=O)N(Cc3ccccc3)Cc3ccccc3)n2C)CC1 [Example 6, 1-(5-Dibenzylcarbamoyl-1-methyl-1H-pyrrol-2-ylmethyl)-piperidine-4-carboxylic acid ethyl ester] | 74 % inhibition | – | –
7 | CN(C(=O)c1ccc(CN2CCC(Cc3ccccc3)CC2)n1C)C1CCCCC1 [Example 7, 5-(4-Benzyl-piperidin-1-ylmethyl)-1-methyl-1H-pyrrole-2-carboxylic acid cyclohexyl-methyl amide] | 62 % inhibition | – | –
8 | Cn1c(CN2CCC(Cc3ccccc3)CC2)ccc1C(=O)N1CCCCC1 [Example 8, [5-(4-Benzyl-piperidin-1-ylmethyl)-1-methyl-1H-pyrrol-2-yl]-piperidin-1-yl methanone] | 61 % inhibition | – | –
9 | CC1CCCCN1Cc1ccc(C(=O)N(Cc2ccccc2)C(C)C)n1C (stereo not drawn) [Example 9, 1-Methyl-5-(2-methyl-piperidin-1-ylmethyl)-1H-pyrrole-2-carboxylic acid benzyl-isopropyl amide] | 59 % inhibition | – | –
10 | CC1CCCCN1Cc1ccc(C(=O)N2CCCCC2)n1C (stereo not drawn) [Example 10, [1-Methyl-5-(2-methyl-piperidin-1-ylmethyl)-1H-pyrrol-2-yl]-piperidin-1-yl methanone] | – | – | 86%
